Consider 91 molecules from the Bradley open melting point set (2014).

Several values for one entry are separate records, joined by “and”; a condition that tells them apart may be missing. Identical values can stand only once.

`COc1ccc(Cl)c(Cl)c1Cl` [1-methoxy-2,3,4-trichlorobenzene] had a melting point of 70 °C.

In turn, `COc1cccc(OC)c1C` [2,6-dimethoxytoluene] displayed a melting point of 40 °C.

Molecule `Clc1ccc(I)cc1` [1-chloro-4-iodobenzene] returned a melting point of 55 °C.

In the case of `CCCCC1C(=O)N(c2ccccc2)N(c2ccccc2)C1=O` [phenylbutazone], the melting point stood at 107 °C.

`O=[N+]([O-])c1c(Cl)c(Cl)cc(Cl)c1Cl` [2,3,5,6-Tetrachloronitrobenzene] returned a melting point of 99.5 °C.

For `CCCCCCCCCCCCCCCCCCCCCCC` [Tricosane], the melting point came out at 49 °C.

For `Cc1ccc([N+](=O)[O-])cc1Br` [2-bromo-4-nitrotoluene], the melting point amounted to 76 °C.

As for `Cl\C1=C(/Cl)C2(Cl)C3C4CC(C3C1(Cl)C2(Cl)Cl)C5OC45` (stereo unspecified) [dieldrin], the melting point was found to be 176 °C.

For `Cc1ccc(I)cc1N` [5-iodo-2-methylaniline], the melting point is 48 °C.

`Oc1c(Br)cc(Br)cc1Br` [2,4,6-tribromophenol] displayed a melting point of 89 °C.

Regarding `Cc1cc(C=O)c(C)n1-c1ccccc1` [2,5-dimethyl-1-phenylpyrrole-3-carboxaldehyde], the melting point came to 89 °C.

On to `COB(OC)OC` [trimethyl borate], for which the melting point is -34 °C.

On to `c1cc2ccc3ccc4ccc5ccc6ccc1c1c2c3c4c5c61` [coronene], for which the melting point is 438 °C and 440 °C.

`COc1ccc(C(O)C(=O)O)cc1` (stereo unspecified) [4-methoxymandelic acid] registered a melting point of 107 °C.

In the case of `O=Cc1ccc(O)c([N+](=O)[O-])c1` [4-hydroxy-3-nitrobenzaldehyde], the melting point came to 142 °C.

As to `CN1CCN(CCCN2c3ccccc3Sc3ccc(Cl)cc32)CC1` [prochlorperazine], the melting point turned out to be 228 °C.

In turn, `N#C/C(=C\c1ccc(Cl)cc1Cl)c1nc(-c2cccc3ccccc23)cs1` showed a melting point of 133 °C.

Regarding `CCCCCCCCCCCCCl` [1-chlorododecane], the melting point was -9 °C.

As for `CC(=O)OC1CCC2(C)C(CCC3C2CCC2(C)C3CCC2(C)CCc2ccccc2)C1` (stereo unspecified) [17-methyl-21-phenylpregnan-3-yl acetate], the melting point amounted to 135 °C.

As to `O=C(O)/C(=C/c1cccc2ccccc12)c1ccccc1` [(2E)-3-naphthalen-1-yl-2-phenylprop-2-enoic acid], the melting point was 161 °C.

`Nc1ccc(Cl)cc1[N+](=O)[O-]` [4-chloro-2-nitroaniline] returned a melting point of 118 °C.

In the case of `CCCCCCC` [heptane], the melting point was -91 °C and -90.6 °C.

Molecule `O=C(c1ccccc1)C(O)c1ccccc1` (stereo unspecified) [benzoin] gave a melting point of 135 °C.

For the molecule `Cc1cc(/C=C2\S/C(=N\c3ccccc3)N(CC#N)C2=O)c(C)n1-c1ccc(C(F)(F)F)cc1` [OSM-S-43], the melting point was determined as 73 °C.

In turn, `N=C(NCCCCCCNC(=N)NC(=N)Nc1ccc(Cl)cc1)NC(=N)Nc1ccc(Cl)cc1` returned a melting point of 134 °C.

For the molecule `O=C(O)c1ccc(Br)s1` [5-bromothiophene-2-carboxylic acid], the melting point amounted to 140 °C.

As for `Nc1ccc(Br)cc1` [4-Bromoaniline], the melting point was 64 °C.

`CC1=NN(c2ccccc2)C(=O)/C1=C/c1ccccc1O` returned a melting point of 154 °C.

In the case of `O=c1[nH]cnc2c1ncn2[C@H]1CC[C@@H](CO)O1` [didanosine], the melting point is 162 °C.

The molecule `OB(O)c1ccsc1` [thiophene-3-boronic acid] registered a melting point of 167 °C.

The molecule `COCCOC` [1,2-dimethoxyethane] displayed a melting point of -69 °C.

Molecule `COc1ccc(B(O)O)c(OC)c1OC` [2,3,4-trimethoxybenzeneboronic acid] gave a melting point of 77 °C.

`O=C(Cl)c1cc([N+](=O)[O-])cc([N+](=O)[O-])c1` [3,5-dinitrobenzoyl chloride] showed a melting point of 67 °C.

`Brc1cccc2ccccc12` [1-bromonaphthalene] yielded a melting point of -1 °C.

`CC(=O)c1ccc(N=C=S)cc1` [4-acetylphenyl isothiocyanate]: the melting point was found to be 79 °C.

Molecule `O=Cc1ccc2c(c1)OCO2` [piperonal] had a melting point of 37 °C.

In turn, `CC[SiH2]CC` [diethylsilane] returned a melting point of -132 °C.

The molecule `COc1cc(NS(=O)(=O)c2ccc(N)cc2)nc(OC)n1` [Sulfadimethoxine] came in with a melting point of 204 °C.

Turning to `CC(C)(C)CCl` [neopentyl chloride], the melting point was -20 °C.

Take `O=C(O)/C=C/c1ccccc1Br` [trans-2-bromocinnamic acid]: the melting point stood at 218 °C.

In turn, `CCCCCC(O)CC` (stereo unspecified) [3-octanol] returned a melting point of -45 °C.

`C/C=C/C1Nn2c(nnc2-c2ccc(OC)cc2)S1` (stereo unspecified) had a melting point of 81 °C.

As for `C[Si]1(C)O[Si](C)(C)O[Si](C)(C)O[Si](C)(C)O1` [octamethylcyclotetrasiloxane], the melting point came to 18 °C.

`O=P1(N(CCCl)CCCl)NCCCO1` (stereo unspecified) [Cyclophosphamide] displayed a melting point of 43 °C.

On to `Cc1c(C(=O)O)cnn1-c1ccccc1` [OSM-S-24], for which the melting point came to 168 °C.

Turning to `Cc1c(Cl)c(Cl)c(Cl)c(Cl)c1Cl` [Pentachlorotoluene], the melting point was 225 °C.

`CC1(C)[C@@H]2CC[C@@]1(C)C(=O)C2` [camphor] had a melting point of 180 °C.

`CC(=O)N(C)c1ccc(Cl)cc1Cl` [2',4'-dichloro-n-methylacetanilide]: the melting point was determined as 87 °C.

`COc1ccccc1C(=O)O` [2-methoxybenzoic acid] displayed a melting point of 101 °C.

With `CC(=O)Oc1cccc2ccccc12` [1-naphthyl acetate], the melting point came out at 45 °C.

Consider `CC(=O)CO` [hydroxyacetone], for which the melting point was -17 °C.

As for `Cc1cccc(B(O)O)c1C` [2,3-dimethylbenzeneboronic acid], the melting point worked out at 175 °C.

`CCN(C)C` [N,N-dimethylethylamine] gave a melting point of -140 °C.

`CC(CC(=O)O)c1ccc(C(=O)O)cc1` (stereo unspecified) [4-(2-carboxy-1-methylethyl)benzoic acid] came in with a melting point of 225 °C.

On to `O=S(=O)(O)C(F)(F)F` [Trifluoromethanesulfonic acid], for which the melting point was -40 °C.

`O=C1O[C@H]([C@@H](O)CO)C(O)=C1O` [Vitamin C] gave a melting point of 191 °C.

`C#CC1(O)CCC2C3CCc4cc(O)ccc4C3C(OC)CC21C` (stereo unspecified) [moxestrol] registered a melting point of 280 °C.

Turning to `Cn1c(=O)c2[nH]cnc2n(C)c1=O` [theophylline], the melting point was 272 °C and 274 °C.

Regarding `CN(C)c1ccc(N)cc1` [N,N-Dimethylbenzene-1,4-diamine], the melting point was 35 °C.

For `O=S(=O)(NS(=O)(=O)C(F)(F)F)C(F)(F)F`, the melting point came to 51.5 °C.

Regarding `Clc1cccc(Cl)c1` [1,3-dichlorobenzene], the melting point is -25 °C.

`Cc1ccc(N)cc1Cl` [3-Chloro-4-methylaniline] showed a melting point of 26 °C.

Take `CC(=O)CC(C)(C)O` [4-hydroxy-4-methyl-2-pentanone]: the melting point was -47 °C.

The molecule `O=C1OC(c2ccccc2)=N/C1=C/c1ccc(-c2cccc([N+](=O)[O-])c2)o1` returned a melting point of 145 °C.

`NCc1ccccc1` [1-Phenylmethanamine] showed a melting point of -46 °C.

`c1ccc(N=Nc2ccc(Nc3ccccc3)cc2)cc1` [4-phenylazodiphenylamine] displayed a melting point of 83 °C.

`CC(C)C1C(=O)NC(=O)NC1=O` [5-isopropylbarbituric acid] yielded a melting point of 215 °C.

The molecule `C1CCCCCCC1` [cyclooctane] returned a melting point of 15 °C.

`CC(=O)Nc1ccc(Cl)cc1C` [4'-chloro-2'-methylacetanilide] came in with a melting point of 140 °C.

The molecule `O=Cc1ccc(Cl)cc1` [p-chlorobenzaldehyde] registered a melting point of 46 °C.

Turning to `O=C(c1ccccc1)C(O)c1ccccc1` (stereo unspecified) [2-Hydroxy-1,2-diphenylethanone], the melting point was found to be 135 °C.

`O=[N+]([O-])c1ccc(O)c(Cl)c1` [2-chloro-4-nitrophenol]: the melting point was 110 °C.

Molecule `CC(=O)CC(C)C` [4-methyl-2-pentanone] came in with a melting point of -84 °C.

The molecule `O=C(O)c1cc(F)nc(F)c1F` [2,3,6-trifluoropyridine-4-carboxylic acid] registered a melting point of 120 °C.

`O=C1CSC(=S)N1c1ccccc1` [4-thiazolidinone, 3-phenyl-2-thioxo-]: the melting point came out at 240 °C.

`COCc1ccccc1` [benzyl_methyl_ether] displayed a melting point of -52 °C.

For the molecule `CNN` [Methylhydrazine], the melting point was -80 °C.

As for `CC(=O)c1ccccc1` [1-Phenylethanone], the melting point came to 19 °C.

As to `Oc1c(Cl)c(Cl)c(Cl)c(Cl)c1Cl` [Pentachlorophenol], the melting point was found to be 174 °C.

`CCOC(=O)/C(C#N)=C/c1ccc(-c2ccccc2Br)o1`: the melting point is 124 °C.

As for `c1ccc(C/C(=N\Nc2ccccc2)c2ccc3ccccc3c2)cc1`, the melting point turned out to be 166 °C.

For the molecule `CC(=O)Nc1ccc(/C=C/c2ccc(NC(C)=O)cc2)cc1` [N,N'-[(E)-ethene-1,2-diyldibenzene-4,1-diyl]diacetamide], the melting point came out at 172 °C.

The molecule `CC1=CC(O)(c2ccccc2)c2ccccc21` (stereo unspecified) [3-methyl-1-phenyl-1H-inden-1-ol] had a melting point of 76 °C.

For `Brc1cc(Br)c(Br)cc1Br` [1,2,4,5-Tetrabromobenzene], the melting point was 182 °C.

In turn, `O=C(O)CC(O)(CC(=O)O)C(=O)O` [citric acid anhydrous] showed a melting point of 153 °C.

`O=[N+]([O-])c1ccc(C(F)(F)F)cc1` [4-nitrobenzotrifluoride]: the melting point was determined as 40 °C.

Take `Nc1ncccc1O` [2-amino-3-hydroxypyridine]: the melting point is 170 °C.

Regarding `C/C=C/CC` [(2E)-Pent-2-ene], the melting point was -140 °C.

Regarding `NCCCCN` [Putrescine], the melting point worked out at 27.5 °C.

In turn, `O=Cc1c(Cl)cccc1Cl` [2,6-dichlorobenzaldehyde] displayed a melting point of 71 °C.

`OB(O)c1cc(Cl)c(F)cc1F` [5-chloro-2,4-difluorobenzeneboronic acid] displayed a melting point of 220 °C.

One may read the melting point as the temperature of the solid-liquid transition.
